Data: article PMC7317212 (Chemmedchem, 2020)

Experiments:
mGAT4 = molecular target: T1, mGAT4 (Mus musculus, UniProt P31650); assay: [^3H]GABA uptake assay, HEK293 cells expressing mGAT4; assay type: cell-based; settings: for remaining activity at 100 µM: HEK293, in presence of 100 μM compound; for IC50: [^3H]GABA uptake, pIC50±SEM
T1 construct: expressed in transfected cells; host or cells: HEK293
T1 sequence (P31650 1-627): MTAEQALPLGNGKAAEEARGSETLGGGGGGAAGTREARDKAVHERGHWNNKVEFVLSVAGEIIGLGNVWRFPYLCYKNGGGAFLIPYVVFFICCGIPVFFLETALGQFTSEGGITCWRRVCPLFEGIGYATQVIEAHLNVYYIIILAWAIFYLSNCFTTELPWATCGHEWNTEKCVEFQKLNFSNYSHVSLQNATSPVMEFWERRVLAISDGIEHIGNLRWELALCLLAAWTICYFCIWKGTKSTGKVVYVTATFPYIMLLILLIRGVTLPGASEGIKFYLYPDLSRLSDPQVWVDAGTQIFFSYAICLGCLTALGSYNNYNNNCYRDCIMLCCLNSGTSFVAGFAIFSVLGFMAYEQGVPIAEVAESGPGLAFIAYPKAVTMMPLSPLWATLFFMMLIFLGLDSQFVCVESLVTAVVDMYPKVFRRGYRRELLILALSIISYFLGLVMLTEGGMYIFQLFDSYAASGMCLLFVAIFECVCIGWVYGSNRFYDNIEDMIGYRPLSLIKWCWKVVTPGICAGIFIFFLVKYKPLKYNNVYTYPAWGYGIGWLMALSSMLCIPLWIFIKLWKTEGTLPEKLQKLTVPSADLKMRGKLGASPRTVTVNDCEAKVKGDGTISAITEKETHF
Method: (§1) For compounds with pIC50 ([^3H]GABA uptake assay) or pK i (MS Binding Assays) values close to or above 5.0, these experiments were repeated twice and SEM have been calculated.
(§2) [^3H]GABA uptake assays: The [^3H]GABA uptake assays were performed according to Kragler et al.33 Cells were grown in 150 cm^2 plates to a confluence of 70–90 % up to passage 25. After detachment the cells were centrifuged 5 min at 500×g, washed for three times in phosphate buffered saline and, finally, resuspended in Krebs buffer (2.5 mM CaCl2, 1.2 mM MgSO4, 1.2 mM KH2PO4, 4.7 mM KCl, 11 mM glucose, 25 mM Tris, 119 mM NaCl, pH 7.2). The uptake assays were performed with aliquots of the resulting cell suspension (about 100000–200000 cells per well) in a total volume of 250 μl in 96 well 2.2 mL deep well plates. The cells were equilibrated for 25 min in Krebs buffer in the presence of the test compound at 37 °C in a gently shaking water bath. […] After addition of 25 μl of a solution containing [^3H]GABA (2.22 TBq/mmol, ARC, St Louis, MO, USA) and unlabeled GABA in Krebs (final concentration 8 nM [^3H]GABA and 32 nM unlabeled GABA for mGAT1, mGAT3, mGAT4 and 20 nM [^3H]GABA and 20 nM unlabeled GABA for mGAT2) the cells were incubated for further 4 min (mGAT1, mGAT3, mGAT4) or 10 minutes (mGAT2), respectively. The incubation was stopped by filtration through Sartorius MGC micro glass fiber filters pre‐soaked for 1 h in 0.9 % NaCl by means of a Brandell MWXR‐96TI cell harvester (Brandell, Gaithersburg, MD, USA) under reduced pressure. The filters were rinsed two times with cold 0.9 % NaCl and subsequently transferred to 96 well sample plates (Perkin Elmer LAS, Boston, MA, USA). After addition of 200 μl Rotiszint Eco Plus (Roth, Karlsruhe, Germany) per well the radioactivity was determined in a microbeta liquid scintillation counter (Perkin Elmer LAS, Boston, MA, USA). Non‐specific uptake was determined in presence of 10 mM GABA for mGAT1, mGAT3 and mGAT4 or 100 mM GABA for mGAT2, respectively. The results are expressed as means±S.E.M. of at least three separate experiments, each carried out in triplicate.

mGAT3 = molecular target: T2, mGAT3 (Mus musculus, UniProt P31649); assay: [^3H]GABA uptake assay, HEK293 cells expressing mGAT3; assay type: cell-based; settings: for remaining activity at 100 µM: HEK293, in presence of 100 μM compound; for IC50: [^3H]GABA uptake, pIC50±SEM
T2 construct: expressed in transfected cells; host or cells: HEK293
T2 sequence (P31649 1-602): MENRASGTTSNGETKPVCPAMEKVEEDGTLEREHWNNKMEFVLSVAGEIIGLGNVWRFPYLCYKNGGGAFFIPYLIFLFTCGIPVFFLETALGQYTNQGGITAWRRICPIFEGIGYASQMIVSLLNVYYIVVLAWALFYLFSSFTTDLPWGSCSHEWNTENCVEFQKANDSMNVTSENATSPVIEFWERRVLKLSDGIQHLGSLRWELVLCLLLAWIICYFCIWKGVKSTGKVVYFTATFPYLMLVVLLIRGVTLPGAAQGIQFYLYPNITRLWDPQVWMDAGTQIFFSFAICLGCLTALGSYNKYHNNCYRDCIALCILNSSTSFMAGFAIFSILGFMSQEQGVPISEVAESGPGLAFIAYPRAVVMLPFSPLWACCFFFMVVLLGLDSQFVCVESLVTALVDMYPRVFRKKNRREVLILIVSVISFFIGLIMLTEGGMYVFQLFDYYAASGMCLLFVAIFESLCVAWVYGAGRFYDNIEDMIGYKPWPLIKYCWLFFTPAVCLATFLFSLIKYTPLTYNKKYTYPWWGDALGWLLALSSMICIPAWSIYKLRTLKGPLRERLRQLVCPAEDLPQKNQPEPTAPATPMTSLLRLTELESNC
Method: as §1, §2

mGAT1 [1] = molecular target: T3, mGAT1 (Mus musculus, UniProt P31648); assay: [^3H]GABA uptake assay, HEK293 cells expressing mGAT1; assay type: cell-based; settings: HEK293; in presence of 100 μM compound
T3 construct: expressed in transfected cells; host or cells: HEK293
Method: as §1, §2

mGAT1 [2] = molecular target: T3, mGAT1; assay: MS Binding Assay with NO711 as native MS marker; settings: in presence of 100 μM compound; read-out: remaining specific NO711 binding (mGAT1)
Method: as §1
MS Binding Assays: The MS Binding Assays were performed with mGAT1 membrane preparations obtained from a stably mGAT1 expressing HEK293 cell line and NO711 as unlabeled marker in competitive binding experiments as previously described in detail.34 In short, test compounds were investigated at 7 concentrations in presence of 10 nM NO 711 in competition experiments. Non specific binding was defined as binding remaining in the presence of 100 mM GABA. Incubation was terminated by transfer of 200 μL per well onto a 96‐well filter plate (Acroprep, glass fibre, 1.0 μm, 350 μL, Pall, Dreieich, Germany) with a 12 channel pipette. After rapid vacuum‐filtration the filters were washed with ice cold 0.9 % NaCl (5×150 μL) and dried at 50 °C for 60 min. Afterwards, the filters were eluted with 100 μL methanol containing [^2H10]NO711 (1.4 nM) as internal standard per well into a deep‐well plate by application of vacuum. This step was repeated twice resulting in a total elution volume of 300 μL. Finally, a volume of 130 μL ammonium formate buffer (10 mM, pH 7.0) was added per well and the generated samples analyzed by LC‐ESI‐MS/MS using a API 3200 as described in detail previously.40

mGAT2 = molecular target: T4, mGAT2 (Mus musculus, UniProt P31651); assay: [^3H]GABA uptake assay, HEK293 cells expressing mGAT2; assay type: cell-based; settings: HEK293; in presence of 100 μM compound
T4 construct: expressed in transfected cells; host or cells: HEK293
T4 sequence (P31651 1-614): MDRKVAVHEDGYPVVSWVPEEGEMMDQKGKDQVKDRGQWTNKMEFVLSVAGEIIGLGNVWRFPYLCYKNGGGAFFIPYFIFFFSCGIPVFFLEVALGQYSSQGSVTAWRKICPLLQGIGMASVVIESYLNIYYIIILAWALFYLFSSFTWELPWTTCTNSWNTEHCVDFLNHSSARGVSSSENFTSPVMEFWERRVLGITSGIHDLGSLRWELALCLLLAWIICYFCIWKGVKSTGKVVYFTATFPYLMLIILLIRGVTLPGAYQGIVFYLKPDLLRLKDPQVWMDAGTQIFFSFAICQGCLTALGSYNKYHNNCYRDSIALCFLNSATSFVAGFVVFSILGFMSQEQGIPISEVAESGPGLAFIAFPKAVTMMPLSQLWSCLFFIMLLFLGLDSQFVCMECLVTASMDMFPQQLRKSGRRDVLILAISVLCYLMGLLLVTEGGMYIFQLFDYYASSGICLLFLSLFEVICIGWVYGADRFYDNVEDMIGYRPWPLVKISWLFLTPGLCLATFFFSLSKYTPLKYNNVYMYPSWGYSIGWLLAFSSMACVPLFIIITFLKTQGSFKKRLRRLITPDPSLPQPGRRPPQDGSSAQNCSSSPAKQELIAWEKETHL
Method: as §1, §2

CCOC(=O)C1CCCN(CCOC(c2ccc(C#N)cc2)(c2ccc(OC)cc2)c2ccc(OC)cc2)C1 (racemic) [12 g, rac‐ Ethyl 1‐{2‐[(4‐cyanophenyl)bis(4‐methoxyphenyl)methoxy]ethyl}‐piperidine‐3‐carboxylate]
remaining activity at 100 µM (mGAT4): 71.9% | remaining activity at 100 µM (mGAT3): 63.6% | remaining activity at 100 µM (mGAT1 [1]): 76.6% | remaining activity at 100 µM (mGAT1 [2]): 97.6% | remaining activity at 100 µM (mGAT2): 80.7%

CCOC(=O)C1CCCN(CCCC(O)(c2ccc(OC)cc2)c2ccc(OC)cc2)C1 (racemic) [12 l, rac ‐Ethyl 1‐[4‐hydroxy‐4,4‐bis(4‐methoxyphenyl)butyl]piperidine‐3‐carboxylate]
remaining activity at 100 µM (mGAT4): 73.8% | remaining activity at 100 µM (mGAT3): 65% | remaining activity at 100 µM (mGAT1 [1]): 79.3% | remaining activity at 100 µM (mGAT1 [2]): 104% | remaining activity at 100 µM (mGAT2): 70.4%

COc1ccc(C(OCCN2CCCC(C(=O)O)C2)(c2ccc(CN3CCCC3=O)cc2)c2ccc(OC)cc2)cc1 (racemic) [5 r, rac‐ 1‐[2‐(Bis{4‐methoxyphenyl}{4‐[(2‐oxopyrrolidin‐1‐yl)methyl]phenyl}‐methoxy)ethyl]piperidine‐3‐carboxylic acid]
IC50 (mGAT4): 64.6 µM | remaining activity at 100 µM (mGAT3): 64.2% | remaining activity at 100 µM (mGAT1 [1]): 76% | remaining activity at 100 µM (mGAT1 [2]): 97% | remaining activity at 100 µM (mGAT2): 79.7%

CCOC(=O)C1CCCN(CCOC(c2ccc(OC)cc2)(c2ccc(OC)cc2)c2ccc(C(N)=O)cc2)C1 (racemic) [12 j, rac‐ Ethyl 1‐{2‐[(4‐carbamoylphenyl)bis(4‐methoxyphenyl)methoxy]‐ethyl}piperidine‐3‐carboxylate]
remaining activity at 100 µM (mGAT4): 60% | IC50 (mGAT3): 79.4 µM | remaining activity at 100 µM (mGAT1 [1]): 57.8% | remaining activity at 100 µM (mGAT1 [2]): 89.3% | remaining activity at 100 µM (mGAT2): 56.1%

COc1ccc(C(OCCN2CCCC(C(=O)O)C2)(c2ccc(CNCC(=O)O)cc2)c2ccc(OC)cc2)cc1 (racemic) [5 n, rac‐ 1‐{2‐[(4‐{[(Carboxymethyl)amino]methyl}phenyl)bis(4‐methoxy‐phenyl)methoxy]ethyl}piperidine‐3‐carboxylic acid]
remaining activity at 100 µM (mGAT4): 72.2% | remaining activity at 100 µM (mGAT3): 90.9% | remaining activity at 100 µM (mGAT1 [1]): 81.8% | remaining activity at 100 µM (mGAT1 [2]): 86.2% | remaining activity at 100 µM (mGAT2): 96.1%

CCOC(=O)C1CCCN(CCOC(c2ccc(OC)cc2)(c2ccc(OC)cc2)c2ccc(C(C)=O)cc2)C1 (racemic) [12 b, rac‐ Ethyl 1‐{2‐[(4‐acetylphenyl)bis(4‐methoxyphenyl)methoxy]ethyl}‐piperidine‐3‐carboxylate]
remaining activity at 100 µM (mGAT4): 84.2% | remaining activity at 100 µM (mGAT3): 55.2% | remaining activity at 100 µM (mGAT1 [1]): 72.9% | remaining activity at 100 µM (mGAT1 [2]): 84.6% | remaining activity at 100 µM (mGAT2): 66.4%

COCc1ccc(C(OCCN2CCCC(C(=O)O)C2)(c2ccc(COC)cc2)c2ccc(COC)cc2)cc1 (racemic) [5 i, rac‐ 1‐(2‐{Tris[4‐(methoxymethyl)phenyl]methoxy}ethyl)piperidine‐3‐carboxylic acid]
remaining activity at 100 µM (mGAT4): 76.1% | remaining activity at 100 µM (mGAT3): 68.3% | remaining activity at 100 µM (mGAT1 [1]): 90.7% | remaining activity at 100 µM (mGAT1 [2]): 92.7% | remaining activity at 100 µM (mGAT2): 72.6%

COCc1ccc(C(OCCN2CCCC(C(=O)O)C2)(c2ccc(OC)cc2)c2ccc(OC)cc2)cc1 (racemic) [5 f, rac ‐1‐(2‐{[4‐(Methoxymethyl)phenyl]bis[4‐methoxyphenyl]methoxy}‐ethyl)piperidine‐3‐carboxylic acid]
IC50 (mGAT4): 3.8 µM | IC50 (mGAT3): 30.9 µM | remaining activity at 100 µM (mGAT1 [1]): 67.1% | remaining activity at 100 µM (mGAT1 [2]): 89.4% | remaining activity at 100 µM (mGAT2): 72.7%

COc1ccc(C(OCCN2CCCC(C(=O)O)C2)(c2ccc(OC)cc2)c2ccc(S(=O)(=O)N(C)C)cc2)cc1 (racemic) [5 c, rac ‐1‐(2‐{[4‐(N,N‐dimethylsulfamoyl)phenyl]bis[4‐methoxyphenyl]‐methoxy}ethyl)piperidine‐3‐carboxylic acid]
remaining activity at 100 µM (mGAT4): 82% | IC50 (mGAT4): > 100 µM | remaining activity at 100 µM (mGAT3): 77.1% | remaining activity at 100 µM (mGAT1 [1]): 67.9% | remaining activity at 100 µM (mGAT1 [2]): 62.1% | remaining activity at 100 µM (mGAT2): 78%

CCOC(=O)C1CCCN(CCOC(c2ccc(COC)cc2)(c2ccc(OC)cc2)c2ccc(OC)cc2)C1 (racemic) [12 f, rac‐ Ethyl 1‐(2‐{[4‐(methoxymethyl)phenyl]bis[4‐methoxyphenyl]‐methoxy}ethyl)piperidine‐3‐carboxylate]
remaining activity at 100 µM (mGAT4): 50.8% | remaining activity at 100 µM (mGAT3): 56.9% | remaining activity at 100 µM (mGAT1 [1]): 66.6% | remaining activity at 100 µM (mGAT1 [2]): 55.3% | remaining activity at 100 µM (mGAT2): 58.8%
